# Assay results as given in patent US5712274A, “Thienotriazolodiazepine compounds and their pharmaceutical use” (Yoshitomi Pharmaceutical Industries, Ltd., priority 1995, dated 1998).
# How the values were obtained:
# VCAM-1 = assay: Inhibitory effect on TNF-α-induced expression of VCAM-1 in HUVECs; assay type: cell-based; conditions: Homo sapiens, HUVEC; HUVECs, TNF-α 20 U/ml, 5 hr; read-out: Inhibitory effect (IC50) on CAM-1 expression
# Method: (§1) Inhibitory effect on expression of VCAM-1 and ELAM-1 in human umbilical vein-derived endothelial cells (HUVECs)
# (§2) HUVECs were suspended in 199 medium containing 20% FCS, 20 μg/ml endothelial cell growth factor derived from bovine brain, and 100 μg/ml heparin, plated into 96-well microculture plates coated with collagen, and cultured at 37° C. in 5% CO2. When cells were grown to confluence, the cells received tumour necrosis factor (TNF)-α (20 U/ml for VCAM-1 expression, 100 U/ml for ELAM-1 expression) and cultured for 5 hr. After the cells were washed once with 199 medium, mouse anti-human VCAM-1 monoclonal antibody (2 μg/ml) or rat anti-human ELAM-1 monoclonal antibody (2 μg/ml) was added, and the cells were incubated for 1 hr at room temperature. After the cells were washed twice, peroxidase-conjugated anti-mouse immunoglobulin antibody or anti-rat immunoglobulin antibody was added, and the cells were incubated for 1 hr at room temperature. After the cells were washed 3 times, 2,2'-azino-bis(3-ethylbenzothiazolone-6-sulfonic acid) was added. After the plates were stood for 15 min at room temperature, absorbance at 405 nm with a reference wave length of 490 nm was measured with a 96-well microplate reader and was regarded as a indicator of VCAM-1 or ELAM-1 expression.
# CD11b = assay: Effect on CD11b expression in human histiocytic leukemia cell line, U937 cells (PDB-induced); assay type: cell-based; conditions: U-937, 72 h, U937 cells, PDB 10 ng/ml, 3 days, read-out: Inhibitory effect on CD11b expression (IC50)
# Method: Effect on CD11b expression human histiocytic leukemia cell line, U937 cells
# Effect on the expression of CD11b antigen, which is the α chain of an adhesion molecule, Mac-1 expressing on the surface of leukocytgic cells, was investigated. U937 cells were suspended in RPMI1640 medium containing 20% fetal calf serum (FCS), plated with phorbol 12,13-dibutyrate (PDB, 10 ng/ml) into 96-well filtration plates, and cultured for 3 days at 37° C. in 5% CO2. After the cells were washed once with RPMI1640 medium, rat anti-human CD11b antibody (2 μg/ml) was added to each well and the plates were incubated for 1 hr on ice. After the cell were washed twice, peroxidase-conjugated anti-rat immunoglobulin antibody (1 μg/ml) was added, and the cells were incubated for 1 hr on ice. After the cells were washed 3 times, substrate for peroxidase (o-phenylenediamine) was added. After the plates were stood for 15 min at room temperature, absorbance at 490 nm was measured with a 96-well microplate reader and was regarded as a indicator of CD11b antigen expression.
# ELAM-1 = assay: Inhibitory effect on TNF-α-induced expression of ELAM-1 in HUVECs; assay type: cell-based; conditions: Homo sapiens, HUVEC; HUVECs, TNF-α 100 U/ml, 5 hr; read-out: Inhibitory effect (IC50) on ELAM-1 expression
# Method: as §1, §2
# TNBS-induced colitis = assay: Effect on TNBS-induced colitis model in rats (oral administration); assay type: in vivo, SD rats; conditions: for Intestinal weight (mean ± S.D.) / MPO activity (mean ± S.D.): TNBS, 7 days
# Method: Effect on trinitrobenzenesufonic acid (TNBS)-induced colitis model in rats
# Colitis was induced by intrarectal injection of TNBS solution (60 mg/ml in 50% EtOH, 500 μl/rat) to SD rats. Seven days later, rats were sacrificed and large intestine (8 cm from anus) was cut off and weighed. Myeloperoxidase (MPO) activity in the intestinal tissue was measured as follows and taken as an indicator of leukocyte infiltration: the intestinal tissue was homogenized and a cycle of freeze-thawing of the tissue was repeated 3 times. The supernatant obtained by centrifugation was assayed for MPO activity with substrate for peroxidase (o-phenylenediamine). MPO activity in the supernatant was calculated with the commercial MPO as a standard. The increases in intestinal weight and MPO activity as described above were taken as indicators of colitis. Test compound was suspended in 0.5% hydroxypropylmethylcellulose solution and administered p.o. (0.1 ml/10 g body weight) for 5 days beginning on the day of TNBS injection.
# [1] = test system: oxazolone-induced ear edema; assay: Effect on oxazolone-induced ear edema in mice; assay type: in vivo; conditions: sensitized mice, 24 hr after challenge
# Method: Effect on oxazolone-induced ear edema in mice.
# Mice were sensitized by applying 50 μl of oxazolone solution (50 mg/ml in acetone) to their shaved abdomen on day 0. On day 7, 5 μl of oxazolone solution was applied to each surface of the right ear. After 24 hr (day 8), the right and left ears were cut off with a puncher of 6 mm in diameter and weighed with an electronic reading balance. The difference in weight between the oxazolone-treated ear (right) and untreated ear (left) was taken to reflect the extent of ear edema. Test compounds were suspended in 0.5% hydroxypropylmethycellulose solution and administered p.o. (0.1 ml/10 g body weight) on days 0 to 4 (once a day) and day 7 (twice a day).
# [2] = test system: lipopolysaccharide (LPS)-induced adhesion of leukocytes; assay: Effect on lipopolysaccharide (LPS)-induced adhesion of leukocytes; assay type: in vivo, BALB/c mice; conditions: 6 hr after LPS
# Description: Effect on lipopolysaccharide (LPS)-induced adhesion of leukocytes
# It has been reported that, by the administration of LPS to mice, an adhesion molecule, Mac-1-dependent leukocyte adhesion is induced, the leukocytes infiltrate into lung, liver and so on, and in result the number of peripheral blood leukocytes reduces (Morisaki et al., Clin. Immunol. Immunopathol., 61, 365-375, 1991). The effect on LPS-induced leukocyte adhesion was investigated by taking the reduction of peripheral blood leukocytes as an indicator of leukocyte adhesion.
# LPS solution (50 ng/ml in saline, 0,5 ml/mouse) was injected into peritoneal cavity of BALB/c mice on day 0. Six hr after the LPS injection, the number of peripheral blood leukocytes was counted with an automatic blood cell counter. Test compounds were suspended in 0.5% hydroxypropylmethylcellulose solution and administered p.o. (0.1 ml/10 g body weight) on days -4 to 0.
compound,measurement,setting,value
"CNC(=O)C[C@@H]1N=C(c2ccc(Cl)cc2)c2c(sc(C)c2C)-n2c(C)nnc21 [Example 1, (S)-N-methyl-4-(4-chloro-phenyl)-2,3,9-trimethyl-6H-thieno[3,2-f][1,2,4]triazolo[4,3-a]-[1,4]diazepine-6-acetamide 1/4 hydrate]",IC50,VCAM-1,25 nM
same,IC50,CD11b,260 nM
same,IC50,ELAM-1,52 nM
same,Intestinal weight (mean ± S.D.),TNBS-induced colitis; 0.3 mg/kg/day p.o.,1328.6 ± 1411.4 mg
same,MPO activity (mean ± S.D.),TNBS-induced colitis; 0.3 mg/kg/day p.o.,1.389 ± 2.806 U/ml
same,Intestinal weight (mean ± S.D.),TNBS-induced colitis; 1 mg/kg/day p.o.,574.2 ± 93.1 mg
same,MPO activity (mean ± S.D.),TNBS-induced colitis; 1 mg/kg/day p.o.,0.221 ± 0.020 U/ml
same,Effect on intestinal weight and leukocyte infiltration in colitis (in words),"TNBS-induced colitis; p.o., Tables 6A and 6B",significantly inhibit the increase in intestinal weight and the leukocyte infiltration caused by colitis in rats
same,Increase in ear weight (mean ± S.D.),[1]; 0.1 mg/kg p.o.,16.3 ± 1.0 mg
same,Increase in ear weight (mean ± S.D.),[1]; 0.3 mg/kg p.o.,15.0 ± 0.6 mg
same,Increase in ear weight (mean ± S.D.),[1]; 1 mg/kg p.o.,14.2 ± 0.8 mg
same,Number of peripheral blood leukocytes (mean ± S.D.),[2]; 0.3 mg/kg/day p.o.,32 ± 5 × 100/μl
same,Number of peripheral blood leukocytes (mean ± S.D.),[2]; 1 mg/kg/day p.o.,50 ± 15 × 100/μl
same,Number of peripheral blood leukocytes (mean ± S.D.),[2]; 3 mg/kg/day p.o.,61 ± 13 × 100/μl
